Molecular target: T1, NEK9 (Homo sapiens, UniProt Q8TD19)
T1 construct: purchased Thermo Fisher Scientific (Life Technologies) SelectScreen
Experiment: SelectScreen Z'LYTE
Format: biochemical
In short: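 SelectScreen broad panel; activity (Z'LYTE, Adapta) plus binding formats. ATP: Km app for CSF1R Z'LYTE; 10 for CAMK1 Adapta. Readout = % per kinase.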

T1 sequence (Q8TD19 whole entry): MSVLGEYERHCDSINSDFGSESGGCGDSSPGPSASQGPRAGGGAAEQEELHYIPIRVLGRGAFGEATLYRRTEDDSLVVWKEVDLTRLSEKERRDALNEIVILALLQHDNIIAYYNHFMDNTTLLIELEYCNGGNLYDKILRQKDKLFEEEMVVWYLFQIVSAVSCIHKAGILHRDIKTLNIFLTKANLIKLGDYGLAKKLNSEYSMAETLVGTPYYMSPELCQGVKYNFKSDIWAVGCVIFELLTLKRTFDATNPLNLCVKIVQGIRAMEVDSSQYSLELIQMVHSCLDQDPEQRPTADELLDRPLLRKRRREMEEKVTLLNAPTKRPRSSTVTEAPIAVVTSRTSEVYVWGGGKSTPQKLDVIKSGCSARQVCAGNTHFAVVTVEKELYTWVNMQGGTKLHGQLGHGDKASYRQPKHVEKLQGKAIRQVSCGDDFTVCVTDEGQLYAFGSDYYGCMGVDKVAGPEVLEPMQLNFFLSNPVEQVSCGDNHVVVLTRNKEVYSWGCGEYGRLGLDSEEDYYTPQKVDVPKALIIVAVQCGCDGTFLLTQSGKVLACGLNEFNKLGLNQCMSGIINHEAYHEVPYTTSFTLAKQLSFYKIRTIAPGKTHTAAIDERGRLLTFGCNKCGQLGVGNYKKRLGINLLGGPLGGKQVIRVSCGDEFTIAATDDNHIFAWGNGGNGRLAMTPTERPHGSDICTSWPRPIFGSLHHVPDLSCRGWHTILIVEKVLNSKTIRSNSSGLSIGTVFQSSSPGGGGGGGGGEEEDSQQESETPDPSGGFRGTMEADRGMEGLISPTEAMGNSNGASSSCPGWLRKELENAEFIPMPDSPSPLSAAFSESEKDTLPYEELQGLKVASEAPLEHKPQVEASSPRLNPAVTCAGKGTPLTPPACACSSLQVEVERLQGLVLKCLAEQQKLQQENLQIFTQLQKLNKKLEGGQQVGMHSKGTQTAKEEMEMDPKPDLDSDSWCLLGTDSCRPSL

CN(C(=O)CN1CCOCC1)c1ccc2sc3c(-c4cccc5c(=O)cc(N6CC7CCC(C6)O7)oc45)cccc3c2c1 [NU5455]
inhibition at 1 µM: -7.2%
